According to patent US20230141603A1, “BENZODIAZEPINE DERIVATIVES AS GABA A GAMMA1 PAM” (Hoffmann-La Roche Inc., priority 2021, published 2023):

Molecular target: T1, h-GABAA α5β2γ1 (Homo sapiens, UniProt P31644+Q8N1C3)
T1 construct: expressed in transfected cells; host or cells: HEK293F cells (ThermoFisher R79007), membranes
T1 sequence (P31644 32-462): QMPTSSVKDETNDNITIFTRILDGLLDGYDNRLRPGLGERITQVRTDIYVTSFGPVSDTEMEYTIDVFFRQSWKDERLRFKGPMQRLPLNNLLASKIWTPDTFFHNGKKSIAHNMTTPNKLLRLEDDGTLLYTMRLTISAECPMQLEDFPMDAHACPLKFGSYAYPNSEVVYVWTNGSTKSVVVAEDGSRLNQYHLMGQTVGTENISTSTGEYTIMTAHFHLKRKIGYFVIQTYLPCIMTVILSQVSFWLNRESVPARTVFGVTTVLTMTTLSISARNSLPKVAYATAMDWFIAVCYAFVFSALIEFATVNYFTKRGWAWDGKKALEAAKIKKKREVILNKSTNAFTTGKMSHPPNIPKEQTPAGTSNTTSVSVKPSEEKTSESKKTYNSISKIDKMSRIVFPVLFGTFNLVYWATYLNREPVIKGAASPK
T1 sequence (P47870 25-512 partner limits assumed): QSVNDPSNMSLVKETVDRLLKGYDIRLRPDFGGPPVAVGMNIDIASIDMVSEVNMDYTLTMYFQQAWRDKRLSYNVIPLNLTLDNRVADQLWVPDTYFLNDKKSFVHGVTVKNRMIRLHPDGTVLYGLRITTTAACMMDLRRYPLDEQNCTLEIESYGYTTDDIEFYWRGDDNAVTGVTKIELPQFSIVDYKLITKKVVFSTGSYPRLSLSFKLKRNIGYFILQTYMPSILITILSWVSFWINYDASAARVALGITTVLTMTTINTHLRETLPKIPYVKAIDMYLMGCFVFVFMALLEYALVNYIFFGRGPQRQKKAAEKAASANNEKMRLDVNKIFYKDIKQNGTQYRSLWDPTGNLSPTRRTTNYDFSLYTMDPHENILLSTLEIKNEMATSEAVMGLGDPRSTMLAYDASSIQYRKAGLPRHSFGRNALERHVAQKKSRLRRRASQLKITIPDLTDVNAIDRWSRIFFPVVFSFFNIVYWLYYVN
T1 sequence (Q8N1C3 36-465): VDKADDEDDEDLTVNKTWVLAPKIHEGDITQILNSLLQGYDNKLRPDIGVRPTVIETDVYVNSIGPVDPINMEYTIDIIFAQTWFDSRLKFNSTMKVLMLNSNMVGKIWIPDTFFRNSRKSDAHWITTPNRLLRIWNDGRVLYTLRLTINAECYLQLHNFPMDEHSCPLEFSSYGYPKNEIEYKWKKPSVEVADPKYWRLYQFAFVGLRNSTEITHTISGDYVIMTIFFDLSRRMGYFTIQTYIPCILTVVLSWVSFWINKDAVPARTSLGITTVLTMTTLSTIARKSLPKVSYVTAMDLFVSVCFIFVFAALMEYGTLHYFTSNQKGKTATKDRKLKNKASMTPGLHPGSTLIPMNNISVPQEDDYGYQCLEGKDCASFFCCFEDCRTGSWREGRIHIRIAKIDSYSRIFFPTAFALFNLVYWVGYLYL
Experiment: Radioligand binding assay, [3H]RO7239181 competition, HEK293F membranes
Protocol: The affinity of compounds at GABAA γ1 subunit-containing receptors was measured by competition for [^3H]RO7239181 (67.3 Ci/mmol; Roche) binding to membranes from HEK293F cells (ThermoFisher R79007) expressing human (transiently transfected) receptors of composition […], α2β2γ1, α1β2γ1. For better protein expression of the α2 subunit-containing receptors, the 28 amino acid long signal peptide (Met1 to Ala28) of the human GABAA α2 subunit was substituted by the 31 amino acid long signal peptide (Met1 to Ser31) of human GABAA α5 subunit.
Harvested pellets from HEK293F cells expressing the different GABAA receptor subtypes were resuspended in Mannitol Buffer pH 7.2-7.4 (Mannitol 0.29M, Triethylamine 10 mM, Acetic acid 10 mM, EDTA 1 mM plus protease inhibitors (20 tablets Complete, Roche Diagnostics Cat. No. 05 056 489 001 per liter)), washed two times and then resuspended at 1:10 to 1:15 dilution in the same buffer. Cell disruption was performed by stirring the suspension in a Parr vessel #4637 at 435 psi for 15 minutes, and then the suspensions were centrifuged at 1000×g for 15 minutes at 4° C. (Beckman Avanti J-HC; rotor JS-4.2). The supernatant (S1) was transferred in a 21 Schott flask and the pellet (P1) was resuspended with Mannitol Buffer up to 175 ml. The resuspended pellet was transferred into a 250 ml Corning centrifugal beaker and centrifuged at 1500×g for 10 minutes at 4° C. (Beckman Avanti J-HC; rotor JS-4.2). The supernatant (S1) was then transferred in the 21 Schott flask and the pellet was discarded. The supernatants (S1) were centrifuged in 500 ml Beckman polypropylene centrifugal beaker at 15′000×g for 30 minutes at 4° C. (Beckman Avanti J-20 XP; rotor JLA-10.500). The pellet (P2) was resuspended with Mannitol Buffer 1:1 and frozen at −80° C. The supernatant (S2) was centrifuged in 100 ml Beckman polypropylene centrifugal tubes at 48000×g for 50 minutes at 4° C. (Beckman Avanti J-20 XP; rotor JA-18). The supernatant (S3) was discarded and the pellet (P3) was resuspended with 1:1 Mannitol Buffer. The P2 and P3 protein concentration was determined with the BIORAD Standard assay method with bovine serum albumin as standard and measured on the NANO-Drop 1000. The membrane suspension was aliquots (500 μl per tube) and stored at −80° C. until required. Membrane homogenates were resuspended and polytronised (Polytron PT1200E Kinematica AG) in Potassium Phosphate 10 mM, KCl 100 mM binding buffer at pH 7.4 to a final assay concentration determined with a previous experiment.
Radioligand binding assays were carried out in a volume of 200 μL (96-well plates) which contained 100 μL of cell membranes, [^3H]RO7239181 at a concentration of 1.5 nM (α5β2γ1) or 20-30 nM (α1β2γ1, α2β2γ1) and the test compound in the range of [0.3-10000]×10^−9 M. Nonspecific binding was defined by 10×10^−6 (α5β2γ1) and 30×10^−6 M RO7235136 and typically represented less than 5% (α5β2γ1) and less than 20% (α1β2γ1, α2β2γ1) of the total binding. Assays were incubated to equilibrium for 1 hour at 4° C. and then, membranes were filtered onto unifilter (96-well white microplate with bonded GF/C filters preincubated 20-50 minutes in 0.3% Polyethylenimine) with a Filtermate 196 harvester (Packard BioScience) and washed 4 times with cold Potassium Phosphate 10 mM pH 7.4, KCl 100 mM binding buffer. After drying, filter-retained radioactivity was detected by liquid scintillation counting. Ki values were calculated using Excel-Fit (Microsoft) and are the means of two determinations.

Row | Compound | Ki [nM]
1 | Cc1ccc2c(c1Cl)C(c1c(F)cccc1F)=NCc1nnc(-c3cccnn3)n1-2 [Example 48, 7-chloro-6-(2,6-difluorophenyl)-8-methyl-1-pyridazin-3-yl-4H-[1,2,4]triazolo[4,3-a][1,4]benzodiazepine] | 1.1
2 | Cc1ccc2c(c1Cl)C(c1c(F)cccc1F)=NCc1nnc(-c3ccncn3)n1-2 [Example 49, 7-chloro-6-(2,6-difluorophenyl)-8-methyl-1-pyrimidin-4-yl-4H-[1,2,4]triazolo[4,3-a][1,4]benzodiazepine] | 1.7
3 | Cc1nnc2n1-c1ccc(Br)c(Cl)c1C(c1c(F)cccc1Cl)=NC2 [Example 50, 8-bromo-7-chloro-6-(2-chloro-6-fluoro-phenyl)-1-methyl-4H-[1,2,4]triazolo[4,3-a][1,4]benzodiazepine] | 1
4 | Fc1cccnc1C1=NCc2nnc(-c3cccnn3)n2-c2ccc(Cl)c(Cl)c21 [Example 54, 7,8-dichloro-6-(3-fluoro-2-pyridyl)-1-pyridazin-3-yl-4H-[1,2,4]triazolo[4,3-a][1,4]benzodiazepine] | 3.8
5 | Fc1cccnc1C1=NCc2nnc(-c3ccncn3)n2-c2ccc(Cl)c(Cl)c21 [Example 55, 7,8-dichloro-6-(3-fluoro-2-pyridyl)-1-pyrimidin-4-yl-4H-[1,2,4]triazolo[4,3-a][1,4]benzodiazepine] | 5.5
6 | COc1ccc2c(c1Cl)C(c1c(F)cccc1F)=NCc1nnc(-c3cccnn3)n1-2 [Example 57, 7-chloro-6-(2,6-difluorophenyl)-8-methoxy-1-pyridazin-3-yl-4H-[1,2,4]triazolo[4,3-a][1,4]benzodiazepine] | 4.6
7 | Cn1cc(-c2nnc3n2-c2ccc(Cl)c(Cl)c2C(c2ncccc2F)=NC3)cn1 [Example 58, 7,8-dichloro-6-(3-fluoro-2-pyridyl)-1-(1-methylpyrazol-4-yl)-4H-[1,2,4]triazolo[4,3-a][1,4]benzodiazepine] | 3.6
8 | O=c1[nH]nc2n1-c1ccc(Cl)c(Cl)c1C(c1ncccc1F)=NC2 [Example 59, 7,8-dichloro-6-(3-fluoro-2-pyridyl)-2,4-dihydro-[1,2,4]triazolo[4,3-a][1,4]benzodiazepin-1-one] | 5.9
9 | Fc1cccnc1C1=NCc2nncn2-c2ccc(Cl)c(Cl)c21 [Example 60, 7,8-dichloro-6-(3-fluoro-2-pyridyl)-4H-[1,2,4]triazolo[4,3-a][1,4]benzodiazepine] | 7.5
10 | COc1ccc2c(c1Cl)C(c1c(F)cccc1F)=NCc1nnc(-c3ccncn3)n1-2 [Example 61, 7-chloro-6-(2,6-difluorophenyl)-8-methoxy-1-pyrimidin-4-yl-4H-[1,2,4]triazolo[4,3-a][1,4]benzodiazepine] | 4.2
11 | COc1ccc2c(c1Cl)C(c1c(F)cccc1F)=NCc1nnc(-c3cccnc3)n1-2 [Example 62, 7-chloro-6-(2,6-difluorophenyl)-8-methoxy-1-(3-pyridyl)-4H-[1,2,4]triazolo[4,3-a][1,4]benzodiazepine] | 4
12 | Fc1cccnc1C1=NCc2nnc(C3CC3)n2-c2ccc(Cl)c(Cl)c21 [Example 65, 7,8-dichloro-1-cyclopropyl-6-(3-fluoro-2-pyridyl)-4H-[1,2,4]triazolo[4,3-a][1,4]benzodiazepine] | 7.8
13 | Fc1cccnc1C1=NCc2nnc(-c3ccncn3)n2-c2ccc(C(F)(F)F)c(Cl)c21 [Example 69, 7-chloro-6-(3-fluoro-2-pyridyl)-1-pyrimidin-4-yl-8-(trifluoromethyl)-4H-[1,2,4]triazolo[4,3-a][1,4]benzodiazepine] | 7.1
14 | Cn1cc(-c2nnc3n2-c2ccc(C(F)(F)F)c(Cl)c2C(c2ncccc2F)=NC3)cn1 [Example 70, 7-chloro-6-(3-fluoro-2-pyridyl)-1-(1-methylpyrazol-4-yl)-8-(trifluoromethyl)-4H-[1,2,4]triazolo[4,3-a][1,4]benzodiazepine] | 6.8
15 | Cc1nnc2n1-c1ccc(Cl)c(Cl)c1C(c1ncccc1F)=NC2 [Example 71, 7,8-dichloro-6-(3-fluoro-2-pyridyl)-1-methyl-4H-[1,2,4]triazolo[4,3-a][1,4]benzodiazepine] | 5.7
16 | Fc1cccnc1C1=NCc2nnc(-c3cccnn3)n2-c2ccc(C(F)(F)F)c(Cl)c21 [Example 72, 7-chloro-6-(3-fluoro-2-pyridyl)-1-pyridazin-3-yl-8-(trifluoromethyl)-4H-[1,2,4]triazolo[4,3-a][1,4]benzodiazepine] | 5.4
17 | Fc1cccnc1C1=NCc2nnc(C3CC3)n2-c2ccc(Br)c(Cl)c21 [Example 77, 8-bromo-7-chloro-1-cyclopropyl-6-(3-fluoro-2-pyridyl)-4H-[1,2,4]triazolo[4,3-a][1,4]benzodiazepine] | 2.8
18 | Cc1nnc2n1-c1ccc(C(F)(F)F)c(Cl)c1C(c1ncccc1F)=NC2 [Example 78, 7-chloro-6-(3-fluoro-2-pyridyl)-1-methyl-8-(trifluoromethyl)-4H-[1,2,4]triazolo[4,3-a][1,4]benzodiazepine] | 7.8
19 | COc1ccc2c(c1Cl)C(c1c(F)cccc1F)=NCc1nnc(C3CC3)n1-2 [Example 79, 7-chloro-1-cyclopropyl-6-(2,6-difluorophenyl)-8-methoxy-4H-[1,2,4]triazolo[4,3-a][1,4]benzodiazepine] | 6.8
20 | COc1nnc2n1-c1ccc(Cl)c(Cl)c1C(c1c(F)cccc1F)=NC2 [Example 90, 7,8-dichloro-6-(2,6-difluorophenyl)-1-methoxy-4H-[1,2,4]triazolo[4,3-a][1,4]benzodiazepine] | 1
